Assay results from patent US10449202B2, “Rationale-based design of a targeted therapy for cancer” (priority 2013, dated 2019).

Columns and labels:
SRC-3 [1] = experiment: Western blot of SRC-3 protein expression in prostate cancer cell lines; format: cell-based; details: 1 μM, 6 hours
Excerpt: (§1) Ponceau S was used to stain proteins.

SRC-3 [2] = experiment: Subcellular fractionation and Western blot of SRC-3 in nucleus and cytoplasm; format: cell-based; details: 1000 nM, 6 hours
Excerpt: as §1
(§2) Nuclear and cytosolic fractions were obtained and analyzed by western blot. Antibodies used include SRC-3, PRK, tubulin, histone-H3, and actin.

PRK-1 = experiment: Subcellular fractionation and Western blot of PRK-1 in nucleus and cytoplasm; format: cell-based; details: 6 hours
Excerpt: as §1, §2

prostate cancer = details: Phase 2 human clinical trial, prostate cancer patients; cited from earlier work
PKC = details: read-out: IC50 PKC; cited from earlier work
gastric cancer cells = experiment: MTT cell viability assay, gastric cancer cells; details: 10-3000 nM, 48 hours, AGS, MKN-45, Hs746T, NCI-N87
prostate cancer cells = experiment: MTT cell viability assay, prostate cancer cells; details: 10-3000 nM, 48 hours, PC3, DU145, LNCaP
PRK1 = experiment: Western blot of PRK1 protein expression in prostate cancer cell lines; details: LNCaP, PC3 and DU145 cells (any of the tested cell lines), 1 μM, 6 hours
DEK = experiment: Western blot of DEK protein levels in prostate, breast and gastric cancer cells, 24 hours, two doses; details: gastric cancer cells (MKN-45 and NCI-N87)
SRC3 = experiment: Western blot of SRC3 protein levels in prostate, breast and gastric cancer cells, 24 hours, two doses; details: for SRC3 protein levels: two doses

C[C@]12O[C@H](C[C@]1(O)CO)n1c3ccccc3c3c4c(c5c6ccccc6n2c5c31)CNC4=O [lestaurtinib]
SRC-3 protein expression level (SRC-3 [1]; DU145 cells): not significantly altered | SRC-3 protein expression level (SRC-3 [1]; LNCaP cells): profound decrease | SRC-3 protein expression level (SRC-3 [1]; PC3 cells): not significantly altered | reduction in cytoplasmic SRC-3, LNCaP compared to PC3 or DU145 (SRC-3 [2]; LNCaP cells): much more dramatic | nuclear SRC-3 protein levels (SRC-3 [2]; LNCaP, DU145 or PC3 cells): did not caused a reduction | SRC-3 protein in the cytoplasm (SRC-3 [2]; all three cell lines (LNCaP, PC3, DU145)): reduced | cytoplasmic PRK-1 levels (PRK-1; LNCaP, PC3, DU145, 1000 nM): unaltered | nuclear PRK-1 protein levels (PRK-1; all three cell lines (LNCaP, PC3, DU145), 1000 nM): increased | primary clinical endpoint of reduced PSA levels (prostate cancer): failed to achieve the primary clinical endpoint of reduced PSA levels | IC50 (PKC): 226 nM | viability of gastric cancer cells (gastric cancer cells): effective in reducing viability | viability of prostate cancer cells (prostate cancer cells): effective in reducing viability | PRK1 protein expression level (PRK1): not significantly altered | DEK levels (DEK): did not change | SRC3 protein levels (SRC3; MCF7 breast cancer cells): most profound dose-dependent decrease | SRC3 expression levels (SRC3; MKN-45 gastric cancer cells, higher dose): showed a decrease | SRC3 protein levels (SRC3; ZR75-1 breast cancer cells): no obvious change
